Data from US5968954A, “2-aminoindan compounds as 5HT1B antagonists” (Adir et Compagnie, priority 1997, dated 1999).
Each block holds one compound with its values, some of them ahead of it.

Assays:
[1] = system: extracellular concentration of serotonin in frontal cortex; assay: Microdialysis experiment in rats (frontal cortex, extracellular serotonin); assay type: in vivo; details: rat frontal cortex, M ± s.e.m.
Text: Carried out in the frontal cortex, these tests make it possible, in the case where the products cause an increase in the release of serotonin, to envisage their use for depression, impulsive disorders and obesity. If they cause a decrease in the release of serotonin they will be beneficial in the treatment of anxiety, panic attacks, sleep problems, cognitive problems and drug abuse problems. Finally, if they produce an increase in dopamine and/or noradrenalin, they will be beneficial in the treatment of schizophrenia and, as above, in the treatment of depression and cognitive problems.
Microdialysis Experiment in Rats
The rats are anaesthetised with pentobarbital (60 mg/kg i.p.). They are placed in a Kopf stereotaxic apparatus and the cannula guide is implanted in the frontal cortex cingulum in accordance with the coordinates described as follows in the Paxinos and Watson atlas (1982): AP:+2.2, L:±0.6, DV:-0.2. The rats are placed in separate cages and are not used in dialysis until 5 days later. On the day of dialysis, the probe is slowly inserted and maintained in its position. […] Simultaneous quantification of dopamine, norepinephrine and serotonin is carried out as follows: 20 μl of dialysis samples are diluted with 20 μl of mobile phase (NaH2 PO4 : 75 mM, EDTA: 20 μM, sodium 1-decanesulphonate: 1 mM, methanol: 17.5%, triethylamine: 0.01%, pH: 5.70) and 33 μl are analysed by HPLC with an inverse phase column (Hypersil ODS 5 μm, C18, 150×4.6 mm, Thermo Separation Products, Les Ulis, France) thermostatically controlled at 45° C. and quantified by way of a coulometric detector. […]
M±s.e.m.=mean of the effect all times merged after administration of the products±standard error of the mean, and n=number of animals. The quantities of the neurotransmitters are expressed as a function of the mean of the three base values before administration of the products and are defined as 0%. […] The reversion of the decrease of the extracellular concentration of serotonin produced by GR 46611 is evaluated statistically by an analysis of variance with drugs as between factor, F (1,25)=26.5, P<0.01.

[2] = system: GR46611-induced hypothermia (prototype agonist 5HT1B) in the guinea-pig; assay: Hypothermia test in the guinea-pig; assay type: in vivo; details: for ΔT° C. (at 90 minutes): mean ± s.e.m., N ≥ 6
Text: Using the hypothermia test on the guinea-pig (M. Stingle et al., J. of Pychopharmacology, 1994. 8, 14) it was possible to determine the agonist or antagonist nature of the products of the invention.
Hypothermia Test in the Guinea-Pig
The guinea-pigs are kept in batteries of three, with free access to food and water, for one week before entering the study. One hour before each experiment, the guinea-pigs are placed in individual cages with free access to water. They are put back in their respective batteries at the end of each experiment. The temperature measurements are carried out using a digital thermometer and a rectal probe. Each guinea-pig is weighed, its base body temperature is taken and then the compound of the present invention to be evaluated is injected i.p. or p.o. In the case of an agonist, the body temperature of each guinea-pig is taken every 30 minutes for 2 hours.
In the case of an antagonist, 15 minutes after its injection each guinea-pig is injected again i.p. with the prototype agonist 5HT1B : GR46611 (5 mg/kg). The temperature is then taken every 30 minutes for 2 hours.
The criterion used for evaluation is the difference in temperature at a given time in relation to the base temperature. For each dose of product and for each time (t30, t60, t90, t120) the mean and the standard error of the mean are calculated.

5HT1A receptor = target: T1, 5HT1A receptor (Rattus norvegicus, UniProt P19327); assay: 5HT1A binding; details: methods known from the literature; read-out: pKi 5HT1A receptor (converted)
T1 sequence (P19327 1-422): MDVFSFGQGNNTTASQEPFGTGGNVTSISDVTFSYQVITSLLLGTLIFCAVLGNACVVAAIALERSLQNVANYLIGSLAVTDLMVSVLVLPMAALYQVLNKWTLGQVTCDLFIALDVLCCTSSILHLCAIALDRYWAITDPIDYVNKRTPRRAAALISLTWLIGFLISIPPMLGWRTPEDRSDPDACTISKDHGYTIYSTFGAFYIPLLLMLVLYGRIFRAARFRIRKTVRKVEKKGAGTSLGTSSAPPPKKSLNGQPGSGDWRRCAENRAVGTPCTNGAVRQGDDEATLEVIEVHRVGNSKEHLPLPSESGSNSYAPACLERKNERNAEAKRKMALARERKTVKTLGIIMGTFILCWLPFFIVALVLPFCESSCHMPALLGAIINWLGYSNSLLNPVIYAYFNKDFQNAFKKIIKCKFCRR
Protocol: The 5HT1A receptor binding studies were carried out according to methods known and described in the literature (cf. S. J. Peroutka, J. Neurochem., 1986, 47, 529-40, M. J. Millan, J. Pharmacol. Exp. Ther., 1994, 268, 337-52). The results are also expressed as pKi. The compounds of the present invention have a very low affinity for the 5HT1A receptor.

5HT1B receptor = target: T2, 5HT1B receptor (Cavia porcellus, UniProt O08892); assay: 5-HT1B binding ([3H]-GR 125743, guinea-pig striatal membranes); details: [3H]-GR 125743 1 nM, guinea-pig striata membranes; pKi = -log Ki
T2 construct: After the dissection of guinea-pig brains, the extracted striata are frozen; from tissue; host or cells: guinea-pig striatum membranes
T2 sequence (O08892 whole entry): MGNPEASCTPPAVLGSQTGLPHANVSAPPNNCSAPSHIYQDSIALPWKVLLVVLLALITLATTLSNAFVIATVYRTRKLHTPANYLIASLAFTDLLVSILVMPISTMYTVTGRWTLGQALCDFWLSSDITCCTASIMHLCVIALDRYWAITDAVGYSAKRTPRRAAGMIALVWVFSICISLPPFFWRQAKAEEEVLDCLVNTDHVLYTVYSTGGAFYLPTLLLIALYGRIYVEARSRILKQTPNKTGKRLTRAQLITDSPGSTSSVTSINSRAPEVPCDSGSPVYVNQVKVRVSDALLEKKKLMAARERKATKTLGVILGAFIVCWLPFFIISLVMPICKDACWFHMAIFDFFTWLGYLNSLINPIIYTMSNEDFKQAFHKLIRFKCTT
Protocol: a) Preparation of the Membranes
After the dissection of guinea-pig brains, the extracted striata are frozen and then homogenised in 20 volumes (weight/volume) of 50 mM tris-HCl (pH 7.7 at room temperature) containing 4 mM CaCl2 and 0.1% ascorbic acid, and centrifuged at 48,000 g for 25 minutes at 4° C. The supernatant is separated and the precipitate is resuspended in the same volume of buffer before being incubated at 37° C. for 15 minutes in order to extract the endogenous serotonin. Finally, the suspension is centrifuged at 48,000 g for 25 minutes at 4° C. and the precipitate is resuspended in 80 volumes of buffer that contains 10 μM pargyline. […]
The data are analysed by non-linear regression using the PRISM programme (Graphpad Software Inc., San Diego, Calif.) in order to determine the Kd values (dissocation constant of the radioligand), the Bmax values (maximum number of sites) for the saturation experiments and the IC50 values (50% inhibiting concentration) and the Hill number for the competition experiments. The inhibition constant (Ki) is calculated according to the Cheng-Prussof equation: Ki =IC50 /1+L/Kd wherein L represents the concentration of the radioligand. The results are expressed as pKi =-log Ki.

SMILES: c1ccc2c(c1)CC(NC1CCN(c3cccc4c3OCCO4)CC1)C2 [Example 1, 1-(2,3-dihydro[1,4]benzodioxin-5-yl)-4-[N-(indan-2-yl)amino]piperidine]
extracellular serotonin, mean effect all times merged relative to base values (0%) ([1]; Product of Example 1 10.0 mg/kg s.c. + GR 46611 10.0 mg/kg s.c. 20 minutes later): +0.7 ± 3.4% | extracellular serotonin, mean effect all times merged relative to base values (0%) ([1]; Product of Example 1 10.0 mg/kg s.c. + Vehicle): -9.5 ± 3.7% | ΔT° C. (at 90 minutes) ([2]; Product of Example 1 0.04 mg/kg i.p. then GR 46611 5 mg/kg i.p.): -0.82 ± 0.30 °C | ΔT° C. (at 90 minutes) ([2]; Product of Example 1 0.16 mg/kg i.p. then GR 46611 5 mg/kg i.p.): -0.75 ± 0.22 °C | agonist or antagonist nature ([2]; hypothermia test, i.p.): acts as an antagonist

Ki (5HT1A receptor): 631 nM | Ki (5HT1B receptor): 3.16 nM
SMILES: c1cc2c(c(N3CCC(NC4Cc5cc6c(cc5C4)OCO6)CC3)c1)OCCO2 [Example 3, 1-(2,3-dihydro[1,4]benzodioxin-5-yl)-4-[N-(5,6-methylenedioxyindan-2-yl)amino]-piperidine]

SMILES: COc1ccc(CNC(=O)C=Cc2ccc3[nH]cc(CCN(C)C)c3c2)cc1 [GR 46611, reference compound]
extracellular serotonin, mean effect all times merged relative to base values (0%) ([1]; Vehicle + GR 46611 10.0 mg/kg s.c.): -40.7 ± 2.3% | ΔT° C. (at 90 minutes) ([2]; Vehicle i.p. then GR 46611 5 mg/kg i.p.): -1.04 ± 0.15 °C
